This is an account of results in US8598356B2, “Heteroaryl-substituted urea modulators of fatty acid amide hydrolase” (Janssen Pharmaceutica NV, priority 2008, dated 2013).

One test has as its target T1, Human FAAH (Homo sapiens, UniProt O00519).
T1 construct: expressed in transfected cells; alternatively T84 frozen cell pellets
T1 sequence (O00519 1-579): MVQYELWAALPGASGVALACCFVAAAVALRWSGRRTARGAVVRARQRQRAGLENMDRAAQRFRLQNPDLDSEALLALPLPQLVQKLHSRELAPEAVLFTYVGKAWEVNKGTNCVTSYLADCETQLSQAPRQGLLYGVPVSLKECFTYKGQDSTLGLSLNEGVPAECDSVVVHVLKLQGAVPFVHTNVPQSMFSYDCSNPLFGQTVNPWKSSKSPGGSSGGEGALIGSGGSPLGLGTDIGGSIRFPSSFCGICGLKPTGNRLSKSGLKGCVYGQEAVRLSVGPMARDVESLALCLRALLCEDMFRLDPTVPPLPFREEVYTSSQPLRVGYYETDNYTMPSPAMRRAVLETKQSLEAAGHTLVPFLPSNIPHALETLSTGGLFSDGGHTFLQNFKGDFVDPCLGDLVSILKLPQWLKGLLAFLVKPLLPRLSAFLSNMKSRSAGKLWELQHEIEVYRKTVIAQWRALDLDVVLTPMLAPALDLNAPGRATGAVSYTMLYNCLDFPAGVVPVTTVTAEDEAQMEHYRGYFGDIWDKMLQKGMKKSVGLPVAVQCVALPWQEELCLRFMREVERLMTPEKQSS
Kind of test: Assay Method 1: FAAH assay, hydrolysis of 3H-anandamide by cell homogenate. It is filed as biochemical. As to conditions: T84 or transfected SK-N-MC cell homogenate, 3H-AEA 80 nM, rt 1 h, average of results obtained. As to the method:
A. Transfection of Cells with Human FAAH
(§1) A 10-cm tissue culture dish with a confluent monolayer of SK-N-MC cells was split 2 days (d) prior to transfection. Using sterile technique, the media was removed and the cells were detached from the dish by the addition of trypsin. One fifth of the cells were then placed onto a new 10-cm dish. Cells were grown in a 37° C. incubator with 5% CO2 in Minimal Essential Media Eagle with 10% Fetal Bovine Serum. After 2 d, cells were approximately 80% confluent. These cells were removed from the dish with trypsin and pelleted in a clinical centrifuge. The pellet was re-suspended in 400 μL complete media and transferred to an electroporation cuvette with a 0.4 cm gap between the electrodes. Supercoiled human FAAH cDNA (1 μg) was added to the cells and mixed. The voltage for the electroporation was set at 0.25 kV, and the capacitance was set at 960 μF. After electroporation, the cells were diluted into complete media (10 mL) and plated onto four 10-cm dishes. Because of the variability in the efficiency of electroporation, four different concentrations of cells were plated. The ratios used were 1:20, 1:10, and 1:5, with the remainder of the cells being added to the fourth dish. The cells were allowed to recover for 24 h before adding the selection media (complete media with 600 μg/mL G418). After 10 d, dishes were analyzed for surviving colonies of cells. Dishes with well-isolated colonies were used. Cells from individual colonies were isolated and tested.
(§2) T84 frozen cell pellets or transfected SK-N-MC cells (contents of 1×15 cm culture dishes) were homogenized in 50 mL of FAAH assay buffer (125 mM Tris, 1 mM EDTA, 0.2% Glycerol, 0.02% Triton X-100, 0.4 mM Hepes, pH 9). The assay mixture consisted of 50 μL of the cell homogenate, 10 μL of the test compound, and 40 μL of anandamide [1-^3H-ethanolamine] (^3H-AEA, Perkin-Elmer, 10.3 Ci/mmol), which was added last, for a final tracer concentration of 80 nM. The reaction mixture was incubated at rt for 1 h. During the incubation, 96-well Multiscreen filter plates (catalog number MAFCNOB50; Millipore, Bedford, Mass., USA) were loaded with 25 μL of activated charcoal (Multiscreen column loader, catalog number MACL09625, Millipore) and washed once with 100 μL of MeOH. Also during the incubation, 96-well DYNEX MicroLite plates (catalog number NL510410) were loaded with 100 μL of MicroScint40 (catalog number 6013641, Packard Bioscience, Meriden, Conn., USA). After the 1 h incubation, 60 μL of the reaction mixture were transferred to the charcoal plates, which were then assembled on top of the DYNEX plates using
Centrifuge Alignment Frames (catalog number MACF09604, Millipore). The unbound labeled ethanolamine was centrifuged through to the bottom plate (5 min at 2000 rpm), which was preloaded with the scintillant, as described above. The plates were sealed and left at rt for 1 h before counting on a Hewlett Packard TopCount.
(§3) Results for compounds tested in these assays are summarized in Table 1, as an average of results obtained. Compounds were tested in free base, hydrochloride salt, and/or trifluoroacetic acid salt forms. Where activity is shown as greater than (>) a particular value, the value is the solubility limit of the compound in the assay medium or the highest concentration tested in the assay.

The target of a further test is T2, Rat FAAH (Rattus norvegicus, UniProt P97612).
T2 construct: expressed in transfected cells
T2 sequence (P97612 1-579): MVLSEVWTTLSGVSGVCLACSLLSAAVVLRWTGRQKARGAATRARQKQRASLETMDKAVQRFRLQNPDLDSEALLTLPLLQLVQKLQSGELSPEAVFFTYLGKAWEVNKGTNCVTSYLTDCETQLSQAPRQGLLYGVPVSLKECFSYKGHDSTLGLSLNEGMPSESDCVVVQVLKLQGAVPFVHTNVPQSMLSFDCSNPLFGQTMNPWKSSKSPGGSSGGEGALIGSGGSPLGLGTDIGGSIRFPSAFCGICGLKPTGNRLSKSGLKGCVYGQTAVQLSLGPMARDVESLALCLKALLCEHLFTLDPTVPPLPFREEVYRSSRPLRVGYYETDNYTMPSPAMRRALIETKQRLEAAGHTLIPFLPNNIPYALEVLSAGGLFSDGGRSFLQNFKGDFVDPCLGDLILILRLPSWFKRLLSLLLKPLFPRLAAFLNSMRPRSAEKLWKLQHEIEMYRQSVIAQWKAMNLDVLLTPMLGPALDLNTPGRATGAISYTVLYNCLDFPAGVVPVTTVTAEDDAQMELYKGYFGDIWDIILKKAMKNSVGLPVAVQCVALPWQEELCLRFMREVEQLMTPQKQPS
Kind of test: Assay Method 2: FAAH assay, hydrolysis of 3H-anandamide by cell homogenate. Format: biochemical. As to conditions: T84 or transfected SK-N-MC cell homogenate, 3H-AEA 80 nM, rt 1 h, average of results obtained. As to the method:
A. Transfection of Cells with Rat FAAH
as §1, with “rat” for “human”, “[…]” for “960 μF.”
as §2, with “25” for “25 μL”, “using Centrifuge Alignment Frames (catalog number MACF09604, Millipore). The unbound labeled ethanolamine was centrifuged through to the bottom plate (5 min at 2000 rpm), which was preloaded with the scintillant, as described above. The plates were sealed and left at rt for 1 h before counting on a Hewlett Packard TopCount.” for “using”
as §3

As for `O=C(Nc1cccnc1)N1CCCC(Cc2cccc(Oc3ccc(Cl)cc3)c2)C1` (single isomer, unassigned; (+)) [Example 13, (+)-3-[3-(4-Chloro-phenoxy)-benzyl]-piperidine-1-carboxylic acid pyridin-3-ylamide], the results for the IC50 against Human FAAH and at Rat FAAH were 19 nM and 31 nM, respectively.
In the case of `O=C(Nc1cccnc1)N1CCCC(Cc2cccc(Oc3ccc(Cl)cc3)c2)C1` (single isomer, unassigned; (-)) [Example 14, (−)-3-[3-(4-Chloro-phenoxy)-benzyl]-piperidine-1-carboxylic acid pyridin-3-ylamide], the concentration for half-maximal inhibition (IC50) at Human FAAH was 73 nM; on Rat FAAH, 27 nM.
With `O=C(Nc1cccnc1)N1CCCC(Cc2ccc3c(c2)OC(F)(F)O3)C1` (stereo not shown) [Example 1, 3-(2,2-Difluoro-benzo[1,3]dioxol-5-ylmethyl)-piperidine-1-carboxylic acid pyridin-3-ylamide], the IC50 at Human FAAH was determined as 410 nM; on Rat FAAH, 604 nM.
Taken in the same sequence, the figures for `O=C(Nc1ccncn1)N1CCCC(Cc2ccc(C(F)(F)F)cc2)C1` (stereo not shown) [Example 2, N-Pyrimidin-4-yl-3-{[4-(trifluoromethyl)phenyl]methyl}piperidine-1-carboxamide] were 8000 nM and above 10000 nM.
On to `O=C(Nc1ccncn1)N1CCCC(Cc2cccc(C(F)(F)F)c2)C1` (stereo not shown) [Example 3, N-Pyrimidin-4-yl-3-{[3-(trifluoromethyl)phenyl]methyl}piperidine-1-carboxamide], for which the IC50 is 8000 nM on Human FAAH and 10000 nM at Rat FAAH.
In the same order, the values of `O=C(Nc1ccncn1)N1CCCC(Cc2ccc(F)cc2)C1` (stereo not shown) [Example 4, 3-[4(4-Fluorophenyl)methyl]-N-pyrimidin-4-ylpiperidine-1-carboxamide] are 10000 nM and above 10000 nM.
In the same order, the values of `O=C(Nc1noc2ccccc12)N1CCCC(Cc2ccc(C(F)(F)F)cc2)C1` (stereo not shown) [Example 5, N-1,2-Benzisoxazol-3-yl-3-{[4-(trifluoromethyl)-phenyl]-methyl}-piperidine-1-carboxamide] are 2000 nM and 183 nM.
For `O=C(Nc1noc2ccccc12)N1CCCC(Cc2cccc(C(F)(F)F)c2)C1` (stereo not shown) [Example 6, N-1,2-Benzisoxazol-3-yl-3-{[3-(trifluoromethyl)-phenyl]-methyl}-piperidine-1-carboxamide], the IC50 at Human FAAH was found to be 645 nM; against Rat FAAH, 50 nM.
Taken in the same sequence, the figures for `O=C(Nc1noc2ccccc12)N1CCCC(Cc2ccc(F)cc2)C1` (stereo not shown) [Example 7, N-1,2-Benzisoxazol-3-yl-3-[(4-fluorophenyl)methyl]piperidine-1-carboxamide] were 2000 nM and 152 nM.
In the case of `O=C(Nc1ccon1)N1CCCC(Cc2ccc(C(F)(F)F)cc2)C1` (stereo not shown) [Example 8, N-Isoxazol-3-yl-3-{[4-(trifluoromethyl)phenyl]methyl}piperidine-1-carboxamide], the IC50 was 10000 nM at Human FAAH and above 10000 nM on Rat FAAH.
In the same order, the values of `O=C(Nc1ccon1)N1CCCC(Cc2cccc(C(F)(F)F)c2)C1` (stereo not shown) [Example 9, N-Isoxazol-3-yl-3-{[3-(trifluoromethyl)phenyl]methyl}piperidine-1-carboxamide] are 7000 nM and 9000 nM.
In the same order, the values of `O=C(Nc1cccnc1)N1CCCC(Cc2cccc(Oc3ccc(F)cc3)c2)C1` (stereo not shown) [Example 10, 3-[3-(4-Fluorophenoxy)benzyl]-N-pyridin-3-ylpiperidine-1-carboxamide] are 18 nM and 19 nM.
In the same order, the values of `O=C(Nc1cnccc1Cl)N1CCCC(Cc2cccc(Oc3ccc(F)cc3)c2)C1` (stereo not shown) [Example 11, 3-[3-(4-Fluoro-phenoxy)-benzyl]-piperidine-1-carboxylic acid (4-chloro-pyridin-3-yl)-amide] are 87 nM and 8 nM.
For the compound `O=C(Nc1cnc2cccnn12)N1CCCC(Cc2cccc(Oc3ccc(F)cc3)c2)C1` (stereo not shown) [Example 12, 3-[3-(4-Fluoro-phenoxy)-benzyl]-piperidine-1-carboxylic acid imidazo[1,2-b]pyridazin-3-ylamide], the results for the 50% inhibitory concentration (IC50) against Human FAAH and against Rat FAAH were 56 nM and 7 nM, respectively.

For orientation: IC50 means the concentration that gives 50% inhibition. A higher IC50 goes with lower potency.
